We go through six compounds from patent US8962651B2, “Compounds for the treatment of hepatitis C” (Bristol-Myers Squibb Company, priority 2013, dated 2015).

Where two headings read alike, the source gives them in different places.

What is called EC50 is the midpoint of the concentration-response curve. Low readings indicate higher potency in that assay, high ones lower potency in that assay. The term IC50 denotes the concentration that inhibits the measured activity by half.

In series [1] the test system is genotype 1b (Con-1) HCV replicon. The experiment in a line: HCV replicon luciferase assay. Format: cell-based. Conditions: Hepatitis C virus, Huh-7, 72 h, 1b replicon, Huh-7 cells, Renilla luciferase, 3 days incubation. The protocol: The cell lines used to evaluate compounds consist of a human hepatocyte derived cell line (Huh-7) that constitutively expresses a genotype 1b (Con-1) HCV replicon or a genotype 1b (Con-1) HCV replicon with an asparagine replacing the cysteine at amino acid 316, or a genotype 2a (JFH-1) replicon, containing a Renilla luciferase reporter gene. These cells were maintained in Dulbecco's modified Eagle medium (DMEM) containing 10% FBS, 100 U/mL penicillin/streptomycin and 1.0 mg/mL G418.
After 3 days incubation at 37° C., cells were analyzed for Renilla Luciferase activity using the EnduRen substrate (Promega cat #E6485) according to the manufacturer's directions. Briefly, the EnduRen substrate was diluted in DMEM and then added to the plates to a final concentration of 7.5 μM. The plates were incubated for at least 1 h at 37° C. then read on a Viewlux Imager (PerkinElmer) using a luminescence program.

The target of series [2] is HCV NS5B (Hepatitis C virus genotype 1b (isolate Con1) (HCV), UniProt Q9WMX2). Nature of the series: HCV NS5B RdRp enzyme assay. Format: biochemical, HCV genotype 1b (Con1). The protocol: Each untagged protein was expressed with an 18 amino acid C-terminal truncation to enhance the solubility. The E. coli competent cell line BL21(DE3) was used for expression of the protein. […] The cultures were cooled to 20° C. and induced with 1 mM IPTG. Fresh ampicillin was added to a final concentration of 50 μg/mL and the cells were grown overnight at 20° C.
Chain of HCV NS5B (Q9WMX2 2420-2992): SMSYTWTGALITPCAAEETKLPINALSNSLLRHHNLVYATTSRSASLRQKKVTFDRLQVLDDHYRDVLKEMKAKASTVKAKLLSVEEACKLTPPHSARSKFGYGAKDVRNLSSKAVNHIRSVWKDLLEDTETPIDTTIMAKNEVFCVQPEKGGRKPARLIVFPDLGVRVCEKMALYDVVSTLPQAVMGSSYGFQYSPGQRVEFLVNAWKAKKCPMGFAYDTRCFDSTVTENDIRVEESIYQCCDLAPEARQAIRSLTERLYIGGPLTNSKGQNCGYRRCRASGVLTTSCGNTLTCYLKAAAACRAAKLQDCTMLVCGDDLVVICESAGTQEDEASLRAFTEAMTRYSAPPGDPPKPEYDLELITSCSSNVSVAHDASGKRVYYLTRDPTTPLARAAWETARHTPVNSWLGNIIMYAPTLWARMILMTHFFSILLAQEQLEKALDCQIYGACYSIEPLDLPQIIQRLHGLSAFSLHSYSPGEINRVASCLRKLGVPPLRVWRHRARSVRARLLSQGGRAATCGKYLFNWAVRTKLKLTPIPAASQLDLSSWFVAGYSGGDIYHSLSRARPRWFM
The lysis buffer consisted of 20 mM Tris-HCl, pH 7.4, 500 mM NaCl, 0.5% triton X-100, 1 mM DTT, 1 mM EDTA, 20% glycerol, 0.5 mg/mL lysozyme, 10 mM MgCl2, 15 ug/mL deoxyribonuclease I, and Complete TM protease inhibitor tablets (Roche). After addition of the lysis buffer, frozen cell pellets were resuspended using a tissue homogenizer. To reduce the viscosity of the sample, aliquots of the lysate were sonicated on ice using a microtip attached to a Branson sonicator. The sonicated lysate was centrifuged at 100,000×g for 30 minutes at 4° C. and filtered through a 0.2 μm filter unit (Corning).
The protein was purified using two sequential chromatography steps: Heparin sepharose CL-6B and polyU sepharose 4B. The chromatography buffers were identical to the lysis buffer but contained no lysozyme, deoxyribonuclease I, MgCl2 or protease inhibitor and the NaCl concentration of the buffer was adjusted according to the requirements for charging the protein onto the column. Each column was eluted with a NaCl gradient which varied in length from 5-50 column volumes depending on the column type. […] The enzyme was aliquoted and stored at −80° C.
An on-bead solid phase homogeneous assay was used in a 384-well format to assess NS5B inhibitors (WangY-K, Rigat K, Roberts S, and Gao M (2006) Anal Biochem, 359: 106-111). The biotinylated oligo dT12 primer was captured on streptavidin-coupled imaging beads (GE, RPNQ0261) by mixing primer and beads in 1× buffer and incubating at room temperature for three hours. Unbound primer was removed after centrifugation. The primer-bound beads were resuspended in 3× reaction mix (20 mM Hepes buffer, pH 7.5, dT primer coupled beads, poly A template, ^3H-UTP, and RNAse inhibitor (Promega N2515)). Compounds were serially diluted 1:3 in DMSO and aliquoted into assay plates. […]
Reactions were allowed to proceed for 24 hours at 30° C. and terminated by the addition of 50 mM EDTA (5 μL). After incubating for at least 15 minutes, plates were read on an Amersham LEADseeker multimodality imaging system.
IC50 values for compounds were determined using ten different [I]. IC50 values were calculated from the inhibition using the four-parameter logistic formula y=A+((B−A)/(1+((C/x)^D))), where A and B denote minimal and maximal % inhibition, respectively, C is the IC50, D is hill slope and x represents compound concentration.

The test system of series [3] is HCV. Particulars: cited from earlier work.
The conditions of series [4]: extended dosing, combination with interferon and ribavirin; cited from earlier work.
Where [5] appears, read: 1b enzyme, 7 nM NS5B, 24 hours at 30° C., read-out: IC50.

`CNC(=O)c1c(-c2ccc(F)cc2)oc2nc(CCC(F)(F)F)c(-c3cccc(C(=O)NC4(c5ncon5)CCC4)c3)cc12` [Example 4, 5-(3-((1-(1,2,4-oxadiazol-3-yl)cyclobutyl)carbamoyl)phenyl)-2-(4-fluorophenyl)-N-methyl-6-(3,3,3-trifluoropropyl)furo[2,3-b]pyridine-3-carboxamide] registered an EC50 in series [1] of 2.41 nM. Also, in series [2] (setting [5]), the IC50 came to 2.05 nM.

In series [1], `CNC(=O)c1c(-c2ccc(F)cc2)oc2nc(CCC(F)(F)F)c(-c3cccc(C(=O)NC(C)(C)c4nc(C)no4)c3)cc12` [Example 9, 2-(4-fluorophenyl)-N-methyl-5-(3-((2-(3-methyl-1,2,4-oxadiazol-5-yl)propan-2-yl)carbamoyl)phenyl)-6-(3,3,3-trifluoropropyl)furo[2,3-b]pyridine-3-carboxamide] showed an EC50 of 2.11 nM. Also, the IC50 in series [2] (setting [5]) amounted to 2.87 nM.

In turn, `CNC(=O)c1c(-c2ccc(F)cc2)oc2nc(NCC(F)(F)F)c(-c3ccc(F)c(C(=O)NC(C)(C)c4ncon4)c3)cc12` [Example 13, 5-(3-((2-(1,2,4-oxadiazol-3-yl)propan-2-yl)carbamoyl)-4-fluorophenyl)-2-(4-fluorophenyl)-N-methyl-6-((2,2,2-trifluoroethyl)amino)furo[2,3-b]pyridine-3-carboxamide] displayed an EC50 in series [1] of 5.76 nM. In addition, in series [2] (setting [5]), the IC50 was determined as 3.42 nM.

For `[2H]C([2H])([2H])Oc1ncc(-c2cc3c(C(=O)NC)c(-c4ccc(F)cc4)oc3nc2CCC(F)(F)F)cc1C(=O)NC(c1ncon1)(C([2H])([2H])[2H])C([2H])([2H])[2H]` [Example 17, 5-[2-(4-fluorophenyl)-3-(methylcarbamoyl)-6-(3,3,3-trifluoropropyl)furo[2,3-b]pyridin-5-yl]-2-(^2H3)methoxy-N-[2-(1,2,4-oxadiazol-3-yl)(^2H6)propan-2-yl]pyridine-3-carboxamide], half-maximal inhibition in series [2] (IC50) required 2.4 nM.

With `CNC(=O)c1c(-c2ccc(F)cc2)oc2cc(N(CCO)S(C)(=O)=O)c(C3CC3)cc12` [HCV-796], in series [3] (single agent, transient decrease then rebound during dosing), the “HCV RNA levels in patients” value is “reduce HCV RNA levels in patients”. Also, the hepatic toxicity entry in series [4] is “hepatic toxicity observed during extended dosing of the combination regimens”.

In the case of alpha-interferon and ribavirin, the sustained efficacy in series [3] (combination therapy) is 40 % of patients.
